{"source": "patent US20260008801A1", "about": "“BIO-BASED SURFACTANTS DERIVED FROM CARBOHYDRATES” (COÖPERATIE KONINKLIJKE COSUN U.A., priority 2022, published 2026)", "type_in_all_cases": "physicochemical", "key": {"[1]": {"assay": "Solubility in water (excess of compound in 4 ml demi water)", "details": "for Solubility: Table E5.2, water", "procedure": "Solubility is preferably solubility in aqueous solution, more preferably solubility in water, most preferably solubility in demineralised water. A skilled person knows how to assess such solubility.\nSolubility in water was determined by preparing mixtures of an excess of compound dispersed in 4 ml demi water using a vortex at maximum speed for 1 min. […] 1 ml of the mixture was concentrated in vacuo to yield a solid. The mass of the solid was determined in mg to calculate the solubility in percentage by dividing by ten."}, "[2]": {"assay": "Foaming abilities, 1% compound solutions shaken by hand", "set-up": "key to FOAM: −: no foam formation; +: low foam formation; ++: moderate foam formation; +++: strong foam formation", "procedure": "Foaming abilities were evaluated at room temperature by shaking 1% compound solutions (2 ml) of pH 3, 7, and 12 by hand for 10 s. The pH of each solution was assessed with a pH meter at room temperature. […] The foam heights at the initial time were compared to one another after which the foaming abilities were classified according to no foam formation (−), low foam formation (+), moderate foam formation (++), and strong foam formation (+++)."}, "[3]": {"assay": "Surface tension measurements, Wilhelmy plate (surface tension, CMC)", "details": "for SURFACE TENSION: room temperature, pH 7", "procedure": "Surface tension measurements were performed with a Biolin Scientific Sigma701 automatic tension meter equipped with a Wilhelmy plate made of platinum (±0.5 mN/m). […] The number of experimental points is related to the compound's/surfactant's solubility and available quantity. All compound/surfactant solutions were allowed to stand 12 h before being measured. The platinum plate was thoroughly cleaned with demi water and flame-dried before each measurement. The CMC of each compound/surfactant was determined at the minimum of a breakpoint of a conventional plot of surface tension versus compound/surfactant concentration. DCMC was obtained by acquiring the surface tension at the CMC. The pC20 value was determined by taking the minus log of the concentration compound/surfactant at a surface tension of 52 mN/m."}, "[4]": {"assay": "Foaming power and stability, Ultra-Turrax, 0.4% aq. surfactant", "details": "Table E5.2; for Foamability (mL) after (min) 1: foam volume after 1 min; for Foamability (mL) after (min) 5: foam volume after 5 min; for Foamability (mL) after (min) 10: foam volume after 10 min", "procedure": "Foaming power was also tested at room temperature with 5 mL of 0.4% aq. surfactant (20 mg) solution in a 50 mL measuring cylinder. After performing the Ultra-Turrax (a registered trademark for a high-performance dispersing instrument) for 20 seconds (8000 rpm), the initial height of the foam was measured for foam height. (volume in mL). Every time step of, 1, 3, 5, 10, 30, 60 minutes was noted. In addition, after 24 hours the stability was checked. Particularly, foaming power and stability of the surfactants were performed using an IKA Ultra-Turrax T25 with an 18 G dispersing element. At room temperature, an aqueous solution of 5 mL 0.4% surfactant in a 50 mL measuring cylinder (2.20 cm diameter) was mixed with the Ultra-Turrax for 20 seconds at 8000 rpm. The foam height (volume in mL) was denoted for 0, 1, 3, 5, 10, 30, 60 min and 24 hours. In addition, after 24 hours the stability was checked."}}, "data": [{"compound": "CCCCCCCCNC[C@H](O)[C@@H](O)[C@@H](O)[C@H](O)C(=O)O", "note": "[Compound 33, N-octyl-D-galacturonic acid amine, reference compound]", "values": [{"measurement": "solubility in H2O", "setting": "[1]", "value": 1, "unit": "%"}, {"measurement": "SOLUBILITY (H2O)", "setting": "[1]; Table E5", "value": 1, "unit": "%"}, {"measurement": "Solubility", "setting": "[1]", "value": 1, "unit": "%"}, {"measurement": "FOAM", "setting": "[2]; Table E5, pH not given", "value": "−"}, {"measurement": "CMC (%)", "setting": "[3]; Table E5", "value": 1, "unit": "%"}, {"measurement": "SURFACE TENSION", "setting": "[3]; Table E5", "value": 45.1, "unit": "mN/m"}]}, {"compound": "CCCCCCCCCCN(C)C[C@@H](O)[C@@H](O)[C@H](O)CO", "note": "[Compound 24b, N-methyl-N-decyl-L-arabinamine]", "values": [{"measurement": "Solubility", "setting": "[1]", "value": 0.1, "unit": "%"}, {"measurement": "Foamability (mL) after (min) 1", "setting": "[4]", "value": 3, "unit": "mL"}, {"measurement": "Foamability (mL) after (min) 5", "setting": "[4]", "value": 3, "unit": "mL"}, {"measurement": "Foamability (mL) after (min) 10", "setting": "[4]", "value": 2, "unit": "mL"}, {"measurement": "CMC (%)", "setting": "[3]; Table E5.2", "value": 0.2, "unit": "%"}, {"measurement": "Surface tension (nM/m)", "setting": "[3]; Table E5.2", "value": 33.7, "unit": "mN/m"}]}, {"compound": "1-(N-(decanoic acid))-L-arabinonamide [Compound 06]", "values": [{"measurement": "foaming behaviour / foam creation, in words", "setting": "[2]", "value": "does not create foam"}]}, {"compound": "CCCCCCCCCCNC(=O)[C@H](O)[C@@H](O)[C@@H](O)[C@H](O)C(=O)O", "note": "[Compound 12]", "values": [{"measurement": "solubility in water, in words", "setting": "[1]", "value": "relatively low"}, {"measurement": "SOLUBILITY (H2O)", "setting": "[1]; Table E2, galactaric acid amides", "value": "<1", "unit": "%"}, {"measurement": "FOAM", "setting": "[2]; Table E2", "value": "++"}]}, {"compound": "CCCCCCNC[C@H](O)[C@@H](O)[C@@H](O)CO", "note": "[Compound 27, N-hexyl-L-arabinamine, reference compound]", "values": [{"measurement": "SOLUBILITY (H2O)", "setting": "[1]; Table E4", "value": 0.75, "unit": "%"}, {"measurement": "Solubility", "setting": "[1]", "value": 0.75, "unit": "%"}, {"measurement": "FOAM", "setting": "[2]; Table E4, pH not given", "value": "−"}, {"measurement": "CMC (%)", "setting": "[3]; Table E4", "value": 0.5, "unit": "%"}, {"measurement": "SURFACE TENSION", "setting": "[3]; Table E4", "value": 30.3, "unit": "mN/m"}]}, {"compound": "CCCCCCCCCCCCN(C)C[C@H](O)[C@@H](O)[C@H](O)[C@H](O)CO", "note": "[Compound 50, 1-(N-methyl-N-dodecyl)-D-glucosamine]", "values": [{"measurement": "solubility in H2O", "setting": "[1]", "value": 0, "unit": "%"}]}, {"compound": "CCCCCCCCCCCCNC(=O)[C@H](O)[C@@H](O)[C@@H](O)[C@H](O)C(=O)O", "note": "[Compound 13]", "values": [{"measurement": "solubility in water, in words", "setting": "[1]", "value": "relatively low"}, {"measurement": "FOAM", "setting": "[2]; Table E2", "value": "−"}]}, {"compound": "O=C(O)CCCCCCCCCCNC[C@H](O)[C@@H](O)[C@@H](O)CO", "note": "[Compound 29]", "values": [{"measurement": "SOLUBILITY (H2O)", "setting": "[1]; Table E4", "value": 1, "unit": "%"}, {"measurement": "FOAM", "setting": "[2]; Table E4, pH not given", "value": "−"}, {"measurement": "CMC (%)", "setting": "[3]; Table E4", "value": 1, "unit": "%"}, {"measurement": "SURFACE TENSION", "setting": "[3]; Table E4", "value": 56.1, "unit": "mN/m"}]}, {"compound": "CCCCCCCCNC[C@H](O)[C@@H](O)[C@@H](O)CO", "note": "[Compound 28, N-octyl-L-arabinamine, reference compound]", "values": [{"measurement": "FOAM", "setting": "[2]; Table E4, pH not given", "value": "−"}]}, {"compound": "CCCCNC[C@H](O)[C@@H](O)[C@@H](O)CO", "note": "[Compound 26, N-butyl-L-arabinamine, reference compound]", "values": [{"measurement": "SOLUBILITY (H2O)", "setting": "[1]; Table E4", "value": 6.67, "unit": "%"}, {"measurement": "FOAM", "setting": "[2]; Table E4, pH not given", "value": "−"}, {"measurement": "CMC (%)", "setting": "[3]; Table E4", "value": 2, "unit": "%"}, {"measurement": "SURFACE TENSION", "setting": "[3]; Table E4", "value": 45.8, "unit": "mN/m"}]}, {"compound": "CCCCCCCC(C)NC[C@H](O)[C@@H](O)[C@@H](O)[C@H](O)C(=O)O", "note": "(stereo partly drawn) [Compound 35, N-(1-methyloctyl)-D-galacturonic acid amine]", "values": [{"measurement": "SOLUBILITY (H2O)", "setting": "[1]; Table E5", "value": 0.9, "unit": "%"}, {"measurement": "FOAM", "setting": "[2]; Table E5, pH not given", "value": "−"}]}, {"compound": "CCCCCCCCCCCCOS(=O)(=O)[O-].[Na+]", "note": "[SLS, reference compound]", "values": [{"measurement": "concentration at which the surface tension is reached", "setting": "[3]", "value": 0.02, "unit": "%"}]}, {"compound": "CCCCCCCCCCN(C)C[C@H](O)[C@@H](O)[C@@H](O)[C@H](O)C(=O)O", "note": "[Compound 25b, N-methyldecyl-D-galactaric acid amine]", "values": [{"measurement": "Solubility", "setting": "[1]", "value": 2, "unit": "%"}, {"measurement": "Foamability (mL) after (min) 1", "setting": "[4]", "value": 6, "unit": "mL"}, {"measurement": "Foamability (mL) after (min) 5", "setting": "[4]", "value": 6, "unit": "mL"}, {"measurement": "Foamability (mL) after (min) 10", "setting": "[4]", "value": 5, "unit": "mL"}, {"measurement": "CMC (%)", "setting": "[3]; Table E5.2", "value": 0.06, "unit": "%"}, {"measurement": "Surface tension (nM/m)", "setting": "[3]; Table E5.2", "value": 32.85, "unit": "mN/m"}]}, {"compound": "CCCCCCCCCCNC[C@H](O)[C@@H](O)[C@@H](O)[C@H](O)C(=O)O", "note": "[Compound 33b, N-decyl-D-galacturonic acid amine]", "values": [{"measurement": "Solubility", "setting": "[1]", "value": 0.55, "unit": "%"}]}]}
